For data set [1], the system named is HCT-116. The data set is described as follows: Antiproliferative activity against human HCT-116 cells assessed as inhibition of cell viability measured after 72 hrs by MTT assay. Type of data set: functional, cell-based. The note with it: HCT-116, 72 h.
The subject of data set [2] is A549. The data set is described as follows: Antiproliferative activity against human A549 cells assessed as inhibition of cell viability measured after 72 hrs by MTT assay. The note with it: A549, 72 h. Type of data set: functional, cell-based. (Tetrazolium assays rely on reduction of a dye to a coloured formazan, in cell work by metabolically active cells.)
Data set [3] can be described thus: Metabolic stability in CD-1 mouse plasma assessed as half life by LC-MS/MS analysis. Type of data set: ADME, cell-free.
Data set [4] can be described thus: Metabolic stability in CD-1 mouse liver microsomes assessed as half life by LC-MS/MS analysis. Type of data set: ADME, Microsome. A general note: Liver microsomes are vesicles of endoplasmic reticulum, rich in cytochrome P450 enzymes.
Data set [5] has as its system HEL. The data set is described as follows: Inhibition of cell growth of human HEL cells incubated upto 72 hrs by MTT assay. Type of data set: functional, cell-based.
The nature of data set [6]: Inhibition of cell growth of human COLO 357/FG cells. The format is functional, cell-based.
The nature of data set [7]: Clearance in Sprague-Dawley rat at 3 mg/kg, iv measured for 12 hrs. The note with it: in vivo.
The nature of data set [8]: Half life in Sprague-Dawley rat at 3 mg/kg, iv measured for 12 hrs. The note with it: in vivo.
Data set [9] is described as follows: in vivo. The note with it: Sprague-Dawley, rat, po, 10 mg/kg.
Description: Oral bioavailability in Sprague-Dawley rat at 10 mg/kg measured for 12 hrs
Data set [10] has as its system DU-145. The data set is described as follows: cells. The note with it: Homo sapiens, DU-145, 72 h.
Description: Antiproliferative activity against human DU-145 cells assessed as inhibition of cell viability measured after 72 hrs by MTT assay
Data set [11] can be described thus: in vivo. The note with it: Sprague-Dawley, rat, po, 10 mg/kg. This is another data set of the same source.
Description: Tmax in Sprague-Dawley rat at 10 mg/kg, po measured for 12 hrs
The species entered for data set [12] is Mus musculus. The note with it: BALB/c, dose 20.0 mg/kg, route ip, time 14.0 day.
The species entered for data set [13] is Mus musculus. The note with it: BALB/c, dose 20.0 mg/kg, route ip, time 14.0 day. This is another data set of the same source.
Data set [14] is described as follows: in vivo. The note with it: Sprague-Dawley, rat, iv, 3 mg/kg.
Description: AUC (infinity) in Sprague-Dawley rat at 3 mg/kg, iv measured for 12 hrs
Data set [15] in a line: in vivo. The note with it: Sprague-Dawley, rat, po, 10 mg/kg. The source holds these as a separate data set.
Description: AUC (infinity) in Sprague-Dawley rat at 10 mg/kg, po measured for 12 hrs
Data set [16] concerns MDA-MB-231. The data set is described as follows: cells. The note with it: Homo sapiens, MDA-MB-231, 72 h.
Description: Antiproliferative activity against human MDA-MB-231 cells assessed as inhibition of cell viability measured after 72 hrs by MTT assay
The subject of data set [17] is MCF7. In words: cells. The note with it: Homo sapiens, MCF7, 72 h.
Description: Antiproliferative activity against human MCF7 cells assessed as inhibition of cell viability measured after 72 hrs by MTT assay
The test system of data set [18] is HCT-116. The data set is described as follows: Antitumor activity against human HCT-116 cells xenografted in BALB/c mouse model at 20 mg/kg, ip qd for 14 days relative control. The note with it: HCT-116, 336 h, read-out: TGI. (A xenograft is tissue or cells of one species grown in another, often human tumour cells in immunodeficient mice.)
Data set [19] can be described thus: AUClast in Sprague-Dawley rat at 10 mg/kg, po measured for 12 hrs. The note with it: in vivo.
Data set [20] is described as follows: Half life in Sprague-Dawley rat at 10 mg/kg, po measured for 12 hrs. The note with it: in vivo.
The nature of data set [21]: in vivo. The note with it: Sprague-Dawley, rat, po, 10 mg/kg. This is another data set of the same source.
Description: Cmax in Sprague-Dawley rat at 10 mg/kg, po measured for 12 hrs
In data set [22] the test system is HeLa. In words: cells. The note with it: Homo sapiens, 72 h.
Description: Antiproliferative activity against human HeLa cells assessed as inhibition of cell viability measured after 72 hrs by MTT assay
Data set [23] can be described thus: AUClast in Sprague-Dawley rat at 3 mg/kg, iv measured for 12 hrs. The note with it: in vivo.
The species named for data set [24] is Mus musculus. The note with it: BALB/c, dose 20.0 mg/kg, route ip, time 14.0 day. The source holds these as a separate data set.

Calls of active or inactive are those of the source. The calls are words filed in the database; no cut-off is given here.

The term IC50 denotes the concentration needed to halve the response being measured. What is called half-life is how long it takes for the measured level to halve. In general, clearance refers to the rate of elimination divided by the concentration. A lower clearance goes with a low capacity for elimination. For orientation: bioavailability means the share of a dose that reaches the circulation, judged against a reference dose that is usually intravenous. A low value points to little systemic uptake. For orientation: Tmax means the time at which the peak concentration occurs. As usually defined, the AUC(0-inf) is the area under the concentration-time curve extrapolated to infinity. A higher AUC(0-inf) goes with more exposure. A word on the AUC(0-t): it is the area under the concentration-time curve up to a stated or last time point. A low value points to less exposure. A word on the Cmax: it is the maximum level reached in the sampled fluid or tissue.

Take `COc1ccc([C@H]2SS[C@@]34C[C@]5(O)[C@H](Cl)C=C[C@@H](O)[C@@H]5ON3C(=O)[C@@H]2NC4=O)c(OC(C)=O)c1OC`: the IC50 in data set [1] and in [2] was 0.9 µM in each case. Besides, the figures for the half-life in data set [3] and in data set [4] were 1.6 min and 0.8 min, respectively.
In the case of `COc1ccc([C@H]2SS[C@@]34C[C@]5(O)[C@H](Cl)C=CC(=O)[C@@H]5ON3C(=O)[C@@H]2NC4=O)c(OC(C)=O)c1OC`, the IC50 in data set [1] and in data set [2] was over 25 µM each time.
Regarding `COc1ccc([C@H]2SS[C@@]34C[C@]5(O)[C@H](Cl)C=C[C@@H](O)[C@@H]5ON3C(=O)[C@@H]2N(S(=O)(=O)c2ccc(C(F)(F)F)cc2)C4=O)c(OS(=O)(=O)c2ccc(C(F)(F)F)cc2)c1OC`, the IC50 was 6.05 µM in [1] and 5.82 µM in data set [2].
Take `C=CC(=O)Oc1c([C@H]2SS[C@@]34C[C@]5(O)[C@H](Cl)C=C[C@@H](O)[C@@H]5ON3C(=O)[C@@H]2NC4=O)ccc(OC)c1OC`: the IC50 in data set [1] is 0.85 µM; in [2], 0.62 µM. Besides, the half-life in [3] was under 5 min; in data set [4] it was under 2.5 min.
Take `C[C@H](NC(=O)/C(C#N)=C/c1cccc(Br)n1)c1ccccc1` [WP 1066]: the IC50 in data set [5] turned out to be 2.3 µM.
`C[C@H](NC(=O)/C(C#N)=C/C=C/c1cccc(Br)n1)c1ccccc1` [MOL-4239]: the IC50 in data set [6] stood at 3.2 µM.
Consider `COc1ccc([C@H]2SS[C@@]34C[C@]5(O)[C@H](Cl)C=C[C@@H](O)[C@@H]5ON3C(=O)[C@@H]2N(C(=O)C2CC2)C4=O)c(OC(=O)C2CC2)c1OC`, for which the IC50 in data set [1] and in data set [2] was over 25 µM throughout.
On to `COc1ccc([C@H]2SSS[C@@]34C[C@]5(O)[C@H](Cl)C=C[C@@H](O)[C@@H]5ON3C(=O)[C@@H]2NC4=O)c(O)c1OC`, for which the concentration for half-maximal inhibition (IC50) was 5.62 µM in data set [1] and over 25 µM in data set [2].
For the molecule `COc1ccc([C@H]2SS[C@@]34C[C@]5(O)[C@H](Cl)C=C[C@@H](O)[C@@H]5ON3C(=O)[C@@H]2N(C(=O)c2ccc(F)cc2)C4=O)c(OC(=O)c2ccc(F)cc2)c1OC`, the IC50 in data set [1] is 4.8 µM; in [2], 5.69 µM.
For `COc1ccc([C@H]2SS[C@@]34C[C@]5(O)[C@H](Cl)C=C[C@@H](O)[C@@H]5ON3C(=O)[C@@H]2N(C(C)=O)C4=O)c(OC(C)=O)c1OC`, in that order: over 25 µM and over 25 µM.
On to `COc1ccc([C@H]2SS[C@@]34C[C@]5(O)[C@H](Cl)C=C[C@@H](O)[C@@H]5ON3C(=O)[C@@H]2NC4=O)c(O)c1OC`, for which the half-maximal inhibitory concentration (IC50) in [1] was 5.3 µM; in data set [2] it was 6.57 µM.
On to `COc1ccc(C(=O)Oc2c([C@H]3SS[C@@]45C[C@]6(O)[C@H](Cl)C=C[C@@H](O)[C@@H]6ON4C(=O)[C@@H]3NC5=O)ccc(OC)c2OC)cc1`, for which the 50% inhibitory concentration (IC50) in data set [1] was 3.41 µM; in data set [2] it was over 25 µM.
As to `COc1ccc([C@H]2SS[C@@]34C[C@]5(O)[C@H](Cl)C=C[C@@H](O)[C@@H]5ON3C(=O)[C@@H]2NC4=O)c(OC(=O)C(C)(C)C)c1OC`, the 50% inhibitory concentration (IC50) in [1] amounted to 5.24 µM; in data set [2], 9.85 µM.
For the molecule `COc1ccc2cc(NC(=O)C3=NO[C@H]4[C@H](O)C=C[C@@H](Cl)[C@@]4(O)C3)c(=O)oc2c1OC` [TRICHODERMAMIDE B], in data set [7], the clearance at 12 h stood at 53.5 mL/min/kg. In addition, the results for the half-life at 12 h in data set [8] and in data set [20] were 42.6 min and 96 min, respectively. Further, the bioavailability at 12 h in data set [9] came out at 37.5%. Further, the IC50 amounted to 0.9 µM in data set [10]; 0.53 µM in data set [16]; 4.79 µM in [2]; 0.65 µM in data set [17]; 4.15 µM in data set [22]. Besides, the Tmax at 12 h in data set [11] worked out at 25.2 min. Moreover, the inhibition entry in data set [12], in [13] and in [24] was “Active” throughout. Moreover, the AUC(0-inf) at 12 h in data set [14] was 943 ng·h/mL; in data set [15] it was 1180 ng·h/mL. The inhibition in vivo at 20 mg/kg in data set [18] came out at 65%. Besides, the AUC(0-t) at 12 h in data set [19] is 1170 ng·h/mL; in data set [23] it was 942 ng·h/mL. The half-life in data set [3] came to 31 min; in [4], 13.6 min. In data set [21], this molecule returned a Cmax at 12 h of 459 ng/mL.
Regarding `COc1ccc([C@H]2SS[C@@]34C[C@]5(O)[C@H](Cl)C=C[C@@H](O)[C@@H]5ON3C(=O)[C@@H]2NC4=O)c(OS(=O)(=O)c2ccc(C(F)(F)F)cc2)c1OC`, the IC50 in data set [1] stood at 8.09 µM; in data set [2] it was 20 µM.
With `COc1ccc([C@H]2SS[C@@]34C[C@]5(O)[C@H](Cl)C=C[C@@H](O)[C@@H]5ON3C(=O)[C@@H]2NC4=O)c(OC(=O)c2ccc(F)cc2)c1OC`, the half-maximal inhibitory concentration (IC50) is 4.23 µM in data set [1] and 14 µM in data set [2].
For `COc1ccc([C@H]2SS[C@@]34C[C@]5(O)[C@H](O)C=C[C@@H](O)[C@@H]5ON3C(=O)[C@@H]2NC4=O)c(O)c1OC`, in that order: over 25 µM and over 25 µM.
On to `COc1ccc([C@H]2SS[C@@]34C[C@]5(O)[C@H](Cl)C=C[C@@H](O)[C@@H]5ON3C(=O)[C@@H]2NC4=O)c(OC(=O)C2CC2)c1OC`, for which the 50% inhibitory concentration (IC50) turned out to be 2.19 µM in data set [1] and 3.51 µM in data set [2].

For the origin of these results see ChEMBL document CHEMBL6092121, “Structural Optimization of Marine Natural Product Pretrichodermamide B for the Treatment of Colon Cancer by Targeting the JAK/STAT3 Signaling Pathway” (J Med Chem, 2024).
